In US20210308138A1, “TISSUE TRANSGLUTAMINASE MODULATORS FOR MEDICINAL USE” (Aarhus Universitet, priority 2018, published 2021):

System: small mesenteric arteries
Experiment: Acetylcholine-induced relaxation of small mesenteric arteries from healthy and diabetic BKS mice (ex vivo)
Design: species or system male BKS(D)-Leprdb/JOrlRj mice
Experimental: In these experiments, healthy control mice of different ages and diabetic adult mice were used and the relaxation measurements were performed as described in Example 1.
Healthy male BKS(D)-Leprdb/JOrlRj heterozygous mice between 14-16 and 24-25 weeks of age, and diabetic homozygous mice between 16-17 weeks of age were tested respectively. The results of the isometric tension studies are shown in FIGS. 2, A), B) and C) respectively.

NNC(=O)CSc1nc2scc(-c3ccccc3)c2c(=O)n1-c1ccccc1 [LDN-27219]
endothelium-dependent relaxation induced by acetylcholine, compared to vehicle (LDN-27219 3·10^−6 mol/L, healthy and diabetic mice): more potent endothelium-dependent relaxation | dependence of the effect on age and diabetes (healthy mice 14-16 and 24-25 weeks, diabetic mice 16-17 weeks): more pronounced in older mice, and particularly pronounced in diabetic mice
